Where only a bound is given, the exact number is not on record here.

Experimental findings from patent publication US20210060016A1, “ANTICANCER AGENT” (JAPANESE FOUNDATION FOR CANCER RESEARCH, priority 2017, published 2021) are described below.

One assay concerns the target T1, tankyrase 2 (Homo sapiens, UniProt Q9H2K2).
T1 construct: tankyrase 2 (613-1, 116aa, ANK5+SAM+PARP); made in house; host or cells: cell-free protein expression system
The assay can be described thus: Tankyrase inhibitory activity test (ELISA, auto-poly(ADP-ribosyl)ation), TNKS2. Format: biochemical. Conditions: Flag-tagged tankyrase 2 (ANK5+SAM+PARP), read-out: TNKS2 (inhibitory activity against tankyrase 2), IC50 rating. How it is done: (§1) The enzymatic activity of tankyrase 1 and the enzymatic activity of tankyrase 2 were measured by the ELISA method based on assessment of auto-poly(ADP-ribosyl)ation to evaluate the tankyrase inhibitory activity of the compound prepared in each of Compound Examples (test compound) (inhibitory activity against tankyrase 1 (TNKS1) and inhibitory activity against tankyrase 2 (TNKS2)). First, Flag-tagged tankyrase 1 (1,024-1, 327aa, SAM+PARP) and tankyrase 2 (613-1, 116aa, ANK5+SAM+PARP) were synthesized with a cell-free protein expression system, and diluted with a Tris buffer solution (50 mM Tris-HCl (pH 8.0), 150 mM NaCl, 10% glycerol). 50 μL of the diluted tankyrase 1 or tankyrase 2 was added to a plate with an anti-FLAG M2 monoclonal antibody immobilized thereon (Anti-FLAG High-Sensitivity M2-Coated Plate) (Sigma-Aldrich), and the mixture was left to stand overnight at 4° C. Thereafter, the plate was washed four times with a PBS (PBST) buffer containing 0.1% TritonX-100.
(§2) Subsequently, the test compound diluted with an assay buffer (50 mM Tris-HCl (pH 8.0), 4 mM MgCl2, 0.2 mM DTT) (DMSO was used as a control) was added to each well of the plate, and the mixture was left to stand at room temperature for 10 minutes. Thereafter, a biotin-labeled NAD solution (225 μM NAD, 25 μM 6-Biotin-17-NAD (Travigen, Inc.)) was added and mixed as a donor substrate, and the mixture was reacted at 30° C. for 45 minutes. To blank wells was added distilled water instead of the biotin-labeled NAD solution. After the reaction, the plate was washed with a PBST buffer four times. Thereafter, HRP (horseradish peroxidase)-labeled streptavidin (Travigen, Inc.) was diluted with a PBS buffer by 1,000 times, and added to each well, and the mixture was reacted at room temperature for 20 minutes. The plate was washed with a PBST buffer four times, a chemiluminescent substrate solution TACS-Sapphire (Travigen, Inc.) was then added to each well, the mixture was reacted at room temperature for 20 minutes, and thechemiluminescence intensity was measured using a chemiluminescence measuring apparatus.
(§3) The residual enzymatic activity in the presence of the test compound was determined from the following expression. On the basis of the residual enzymatic activity at each of multiple concentrations of the test compound, the enzyme inhibitory activity was calculated in terms of a 50%-inhibition concentration (IC50 value) using data analysis software Origin (LightStone Corp.). Residual activity (%)={(chemiluminescence intensity with test compound added)−(chemiluminescence intensity of blank)}/{(chemiluminescence intensity of control)−(chemiluminescence intensity of blank))

Another assay concerns the target T2, tankyrase 1 (Homo sapiens, UniProt O95271).
T2 construct: tankyrase 1 (1,024-1, 327aa, SAM+PARP); made in house; host or cells: cell-free protein expression system
The assay can be described thus: Tankyrase inhibitory activity test (ELISA, auto-poly(ADP-ribosyl)ation), TNKS1. Format: biochemical. The settings on record: Flag-tagged tankyrase 1 (SAM+PARP), read-out: TNKS1 (inhibitory activity against tankyrase 1), IC50 rating. Here is the method: as §1, §2, §3
On the technique in general: In an ELISA, binding on a coated surface is turned into a signal by an enzyme label.

Assay [1] relates to human colorectal cancer cell line COLO-320DM. Nature of the assay: Cell proliferation inhibitory activity test (Celltiter-Glo). In kind it is cell-based. The settings on record: 96 hours, read-out: COLO-320DM (cell proliferation inhibitory activity), G150 rating. How it is done:
The cell proliferation inhibitory activity of the compound, which had been prepared in each of Compound Examples, against the human colorectal cancer cell line COLO-320DM was evaluated by Celltiter-Glo Luminescent Cell Viability Assay (Promega Corporation; G7573). COLO-320DM cells were cultured in RPMI-1640 medium containing 2 mM glutamine (Wako Pure Chemical Industries, Ltd; 189-02025) supplemented with 10% fetal bovine serum. The cultured cells were washed with PBS, and then dissociated with trypsin/EDTA, and a cell solution with 3×10^4 cells/mL was prepared.
Subsequently, the cell solution was seeded in a 96-well microplate (Thermo/Nunc Company; 136101) in an amount of 70 μL per well, and cultured overnight under the condition of 37° C. and 5% COz. The next day, a test compound solution obtained by diluting the test compound (DMSO solution) with a cell culture medium (final concentration of DMSO was 1%) was added in an amount of 10 μL per well, and the mixture was reacted under the condition of 37° C. and 5% CO2 for 96 hours (a 1% DMSO solution was used as a control). Thereafter, a Celltiter-Glo Luminescent Cell Viability Assay reagent was added (Promega Corporation; G7573) in an amount of 80 μL per well, the mixture was stirred with a shaker for 2 minutes while light was blocked with an aluminum foil, and the mixture was incubated at room temperature for 10 minutes.
Thereafter, a luminescence signal was measured with a luminometer (Biotech Company; Synergy). The ratio of cell proliferation in each compound addition group to cell proliferation in a control group containing no test compound solution, where cell proliferation in the control group is 100%, was determined, and the value of a compound concentration necessary for suppressing the amount of residual cells to 50% of that in the control (G150) was calculated as the cell proliferation inhibitory activity. For the COLO-320DM (cell proliferation inhibitory activity against COLO-320DM) of each test compound as measured through the above-mentioned method, a test compound having a G150 value of less than 1 μM was rated “A”, a test compound having a G150 value of 1 μM or more and less than 10 μM was rated “B”, a test compound having a G150 value of 10 μM or more was rated “C”, and an unevaluated test compound was designated as “NT”.

T2 sequence (O95271 1024-1327): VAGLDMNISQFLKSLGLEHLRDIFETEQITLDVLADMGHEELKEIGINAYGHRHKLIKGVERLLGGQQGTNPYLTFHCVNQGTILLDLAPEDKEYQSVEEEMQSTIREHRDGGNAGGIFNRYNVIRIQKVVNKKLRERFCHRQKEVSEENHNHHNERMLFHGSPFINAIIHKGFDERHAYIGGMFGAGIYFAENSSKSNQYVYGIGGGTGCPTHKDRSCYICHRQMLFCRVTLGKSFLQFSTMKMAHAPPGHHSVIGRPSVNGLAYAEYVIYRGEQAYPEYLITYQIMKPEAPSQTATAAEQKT
T1 sequence (Q9H2K2 613-1166): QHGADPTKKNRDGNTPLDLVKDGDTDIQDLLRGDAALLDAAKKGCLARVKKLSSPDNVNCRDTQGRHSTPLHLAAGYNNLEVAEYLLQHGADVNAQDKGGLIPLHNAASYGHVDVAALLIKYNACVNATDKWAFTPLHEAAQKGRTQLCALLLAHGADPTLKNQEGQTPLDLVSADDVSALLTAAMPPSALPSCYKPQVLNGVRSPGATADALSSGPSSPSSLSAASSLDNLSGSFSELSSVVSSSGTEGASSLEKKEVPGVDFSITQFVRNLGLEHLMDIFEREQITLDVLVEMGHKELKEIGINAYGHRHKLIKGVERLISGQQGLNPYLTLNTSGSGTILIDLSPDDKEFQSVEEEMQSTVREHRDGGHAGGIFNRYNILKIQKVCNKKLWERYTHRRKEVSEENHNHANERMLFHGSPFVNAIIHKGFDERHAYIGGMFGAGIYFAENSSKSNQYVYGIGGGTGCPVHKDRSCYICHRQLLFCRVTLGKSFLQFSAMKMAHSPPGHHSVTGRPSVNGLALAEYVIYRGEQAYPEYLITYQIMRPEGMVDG

Take `CN1c2ccccc2C(=O)NC1c1c[nH]nc1-c1cccc(F)c1` (stereo not drawn) [Compound Example 102, 2-[3-(3-Fluorophenyl)-1H-pirazol-4-yl]-1-methyl-2,3-dihydroquinazolin-4-one]: the IC50 was less than 0.02 µM at tankyrase 2, less than 0.02 µM at tankyrase 1 and 1 to 10 µM in assay [1].
In the case of `CCOc1ccc(-c2n[nH]cc2C2NC(=O)c3cccc(C)c3N2)cc1` (stereo not drawn) [Compound Example 103, 2-[5-(4-Ethoxyphenyl)-1H-pyrazol-4-yl]-8-methyl-2,3-dihydro-1H-quinazolin-4-one], the IC50 was less than 0.02 µM at tankyrase 2, less than 0.02 µM on tankyrase 1 and 1 to 10 µM in assay [1].
Take `COc1ccc(-c2n[nH]nc2C2NC(=O)c3ccccc3N2C)cc1` (stereo not drawn) [Compound Example 104, 2-[5-(4-Methoxyphenyl)-2H-1,2,3-triazol-4-yl]-1-methyl-2,3-dihydroquinazolin-4-one]: the IC50 on tankyrase 2 was less than 0.02 µM; at tankyrase 1, less than 0.02 µM; in assay [1], 1 to 10 µM.
`COc1ccc(-c2n[nH]nc2C2NC(=O)c3cccc(C)c3N2)cc1` (stereo not drawn) [Compound Example 105, 2-[5-(4-Methoxyphenyl)-2H-1,2,3-triazol-4-yl]-8-methyl-2,3-dihydro-1H-quinazolin-4-one]: the IC50 on tankyrase 2 was less than 0.02 µM; at tankyrase 1, less than 0.02 µM; in assay [1] it was less than 1 µM.
Turning to `COc1ccc(-c2n[nH]nc2C2NC(=O)c3cccc4c3N2CC4)cc1` (stereo not drawn) [Compound Example 106, 11-[5-(4-Methoxyphenyl)-2H-1,2,3-triazol-4-yl]-1,10-diazatricyclo[6.3.1.0^4,12]dodeca-4(12),5,7-trien-9-one], the IC50 on tankyrase 2 was less than 0.02 µM; at tankyrase 1 it was less than 0.02 µM; in assay [1], 1 to 10 µM.
Regarding `[2H]C([2H])([2H])Oc1ccc(-c2n[nH]nc2C2NC(=O)c3cccc(C)c3N2)cc1` (stereo not drawn) [Compound Example 107, 8-Methyl-2-[5-(4-(trideuteriomethoxy)phenyl)-2H-1,2,3-triazol-4-yl]-2,3-dihydro-1H-quinazolin-4-one], the values for the IC50 (on tankyrase 2; on tankyrase 1; in assay [1]) were less than 0.02 µM, less than 0.02 µM and less than 1 µM, respectively.
Turning to `Cc1cccc2c1NC(c1n[nH]nc1-c1ccc(OCC(F)F)cc1)NC2=O` (stereo not drawn) [Compound Example 108, 2-[4-[4-(2,2-Difluoroethoxy)phenyl]-2H-1,2,3-triazol-5-yl]-8-methyl-2,3-dihydro-1H-quinazolin-4-one], the IC50 was less than 0.02 µM on tankyrase 2, less than 0.02 µM at tankyrase 1 and 1 to 10 µM in assay [1].
On to `COc1ccc(-c2n[nH]cc2C2NC(=O)c3ccccc3N2C)cc1` (stereo not drawn) [Compound Example 109, 2-[5-(4-Methoxyphenyl)-1H-pyrazol-4-yl]-1-methyl-2,3-dihydroquinazolin-4-one], for which the IC50 on tankyrase 2 was less than 0.02 µM; at tankyrase 1, less than 0.02 µM; in assay [1], no less than 10 µM.
Turning to `O=c1[nH]c(N2CCC3(CC2)CN(CCO)c2cc(F)cc(F)c23)nc2c1CCCC2` [Example 1], the IC50 on tankyrase 2 is less than 0.02 µM; at tankyrase 1 it was less than 0.02 µM; in assay [1], 1 to 10 µM.
As for `COc1cc(F)c2c(c1)N(CCO)C(=O)C21CCN(c2nc3c(c(=O)[nH]2)CCCN3C)CC1` [Example 2], in assay [1], the IC50 was less than 1 µM.
With `CN1CCCc2c1nc(N1CCC3(CC1)C(=O)N(CC#N)c1cc(F)cc(F)c13)[nH]c2=O` [Example 3], in assay [1], the IC50 is less than 1 µM.
Same read-out and setting: to `COc1cc(F)c2c(c1)N(CC#N)C(=O)C21CCN(c2nc3c(c(=O)[nH]2)CCCN3C)CC1` [Example 4] belongs less than 1 µM; to `CN1CCN(c2cc(F)c3c(c2)N(C)C(=O)C32CCN(c3nc4c(c(=O)[nH]3)CCCN4C)CC2)CC1` [Example 5], less than 1 µM; to `CN1CCCc2c1nc(N1CCC3(CC1)C(=O)N(C)c1cc(OCC4COC4)cc(F)c13)[nH]c2=O` [Example 6], less than 1 µM.
The same measure, in the same setting: then `CN1CCCc2c1nc(N1CCC3(CC1)C(=O)N(C)c1cc(OC4CCOCC4)cc(F)c13)[nH]c2=O` [Example 7], with less than 1 µM.
Still for that read-out and setting: to `CN1CCN(CCOc2cc(F)c3c(c2)N(CC(F)(F)F)C(=O)C32CCN(c3nc4c(c(=O)[nH]3)CCCN4C)CC2)CC1` [Example 8] belongs less than 1 µM.
Consider `CN1CCCc2c1nc(N1CCC3(CC1)C(=O)N(CC(F)(F)F)c1cc(OCC(=O)O)cc(F)c13)[nH]c2=O` [Example 9], for which the IC50 is less than 0.02 µM on tankyrase 2, less than 0.02 µM on tankyrase 1 and less than 1 µM in assay [1].
With `CN1CCCc2c1nc(N1CCC3(CC1)C(=O)N(CC(F)(F)F)c1cc(OCc4nnn[nH]4)cc(F)c13)[nH]c2=O` [Example 10], the IC50 in assay [1] is less than 1 µM.
`CN1CCCc2c1nc(N1CCC3(CC1)C(=O)N(C)c1cc(N4CCC(C(=O)O)CC4)cc(F)c13)[nH]c2=O` [Example 11]: the IC50 in assay [1] is less than 1 µM.
Still for that read-out and setting: to `CN1CCCc2c1nc(N1CCC3(CC1)C(=O)N(C)c1cc(N4CC(C(=O)O)C4)cc(F)c13)[nH]c2=O` [Example 12] belongs less than 1 µM.
As to `CN1CCCc2c1nc(N1CCC3(CC1)C(=O)N(C)c1c(OC4CCOC4)ccc(Cl)c13)[nH]c2=O` (stereo not drawn) [Example 13], the figures for the IC50 (on tankyrase 2; at tankyrase 1; in assay [1]) were less than 0.02 µM, less than 0.02 µM and less than 1 µM, respectively.
As for `COc1ccc(Cl)c2c1N(CC(C)(C)O)C(=O)C21CCN(c2nc3c(c(=O)[nH]2)CCCN3C)CC1` [Example 14], in assay [1], the IC50 is less than 1 µM.
Same read-out and setting: to `CN1CCCc2c(O)nc(N3CCC4(CC3)C(=O)N(CC(C)(C)O)c3cccc(F)c34)nc21` [Example 15] belongs less than 1 µM; to `CN1CCCc2c(O)nc(N3CCC4(CC3)OC(=O)c3cc(-c5cnn(C)c5)cc(F)c34)nc21` [Example 16], less than 1 µM.
Same read-out and setting: then `CN1CCCc2c1nc(N1CCC3(CC1)C(=O)N(C)c1cc(N4CCN(S(C)(=O)=O)CC4)cc(F)c13)[nH]c2=O` [Example 17], with less than 1 µM.
As to `COC(=O)N1CCN(c2cc(F)c3c(c2)N(C)C(=O)C32CCN(c3nc4c(c(=O)[nH]3)CCCN4C)CC2)CC1` [Example 18], the IC50 in assay [1] is less than 1 µM.
On the same count and under the same terms, then `C[C@@H]1CN(c2cc(F)c3c(c2)N(C)C(=O)C32CCN(c3nc4c(c(=O)[nH]3)CCCN4C)CC2)C[C@H](C)O1` [Example 19], with less than 1 µM; and `COC1CCN(c2cc(F)c3c(c2)N(C)C(=O)C32CCN(c3nc4c(c(=O)[nH]3)CCCN4C)CC2)CC1` [Example 20], with less than 1 µM; and `CN1CCCc2c1nc(N1CCC3(CC1)C(=O)N(C)c1cc(N4CCC(C#N)CC4)cc(F)c13)[nH]c2=O` [Example 21], with less than 1 µM.
